In assay [1] the test system is Enterococcus faecium. The assay is described as follows: Minimum inhibitory concentration against vancomycin-A Enterococcus faecium in the presence of 30% bovine serum (n=1) (range = 2>128mg/l). It counts as functional.
The test system of assay [2] is Enterococcus faecalis. The assay is described as follows: Minimum inhibitory concentration against vancomycin-sensitive Enterococcus faecalis in the presence of 30% bovine serum(n=3) (range = 0.25-1mg/l). It counts as functional.
Assay [3] has as its system Staphylococcus epidermidis. Nature of the assay: Minimum inhibitory concentration against methicillin-sensitive Staphylococcus epidermidis in the presence of 30% bovine serum. It counts as functional.
The subject of assay [4] is Staphylococcus haemolyticus. The assay is described as follows: Minimum inhibitory concentration against Staphylococcus haemolyticus in the presence of 30% bovine serum. It counts as functional.
For assay [5], the system named is Enterococcus faecalis. The assay is described as follows: Minimum inhibitory concentration against vancomycin-A Enterococcus faecalis in the presence of 30% bovine serum (n=4). Type of assay: functional.
Assay [6] deals with Staphylococcus epidermidis. Nature of the assay: Minimum inhibitory concentration against methicillin-resistant Staphylococcus epidermidis in the presence of 30% bovine serum. Type of assay: functional.
Assay [7] has as its system Enterococcus faecium. The assay is described as follows: Minimum inhibitory concentration against vancomycin-sensitive Enterococcus faecium in the presence of 30% bovine serum(n=1). It counts as functional.
The subject of assay [8] is Staphylococcus aureus. The assay is described as follows: Minimum inhibitory concentration against methicillin-resistant Staphylococcus aureus.
Assay [9] relates to Staphylococcus aureus. The assay is described as follows: Minimum inhibitory concentration against methicillin-sensitive Staphylococcus aureus without serum.
In assay [10] the test system is Enterococcus faecalis. The assay is described as follows: Minimum inhibitory concentration against vancomycin-sensitive Enterococcus faecalis in the presence of 30% bovine serum (n=3). It counts as functional.
Assay [11] has as its system Enterococcus faecium. The assay is described as follows: Minimum inhibitory concentration against vancomycin-A Enterococcus faecium in the presence of 30% bovine serum (n=1) (range = 4-8mg/L). Type of assay: functional.
The subject of assay [12] is Enterococcus faecalis. Nature of the assay: Minimum inhibitory concentration against vancomycin-A Enterococcus faecalis in the presence of 30% bovine serum(n=4) (range = 0.5-64mg/L). It counts as functional.
For assay [13], the system named is Enterococcus faecium. Nature of the assay: Minimum inhibitory concentration against vancomycin-A Enterococcus faecium in the presence of 30% bovine serum (n=1) (range = 0.25-32mg/l). It counts as functional.
The subject of assay [14] is Enterococcus faecalis. Nature of the assay: Minimum inhibitory concentration against vancomycin-sensitive Enterococcus faecalis in the presence of 30% bovine serum (n=3) (range = <0.125-0.25mg/l). It counts as functional.
Assay [15] concerns Staphylococcus aureus. Nature of the assay: Minimum inhibitory concentration against methicillin-sensitive Staphylococcus aureus.

In brackets after ≈: the same amount, converted by molar mass.

For the compound `CN(Cc1ccc(C(=O)Oc2ccccc2)cc1)[C@H]1C(=O)N[C@@H]2Cc3ccc(cc3)Oc3cc4cc(c3O[C@@H]3OC(C(=O)O)C(O)[C@H](O)C3NCc3ccc(C(=O)Oc5ccccc5)cc3)Oc3ccc(cc3Cl)[C@@H](O)C3NC(=O)[C@H](NC(=O)[C@@H]4NC(=O)[C@@H](NC2=O)c2cc(cc(O)c2Cl)Oc2cc1ccc2O)c1ccc(O)c(c1)-c1c(O[C@H]2O[C@H](CO)[C@@H](O)[C@H](O)[C@@H]2O)cc(O)cc1[C@@H](C(=O)O)NC3=O` (stereo not given in full), the MIC is over 128 µg/mL with Enterococcus faecium [1]; 1 µg/mL with Enterococcus faecalis [2]; 4 µg/mL in assay [3]; 64 µg/mL in assay [4]; 4 µg/mL in the assay with Enterococcus faecalis [5]; 16 µg/mL in assay [6]. Moreover, the MIC in the assay on Enterococcus faecium [7] was 1 µg/mL; with Staphylococcus aureus [8], 2 µg/mL (≈ 1.01 µM); in the assay with Staphylococcus aureus [9] it was 2 µg/mL (≈ 1.01 µM).

As for `CCCCCCCCCCc1ccc(CNC2[C@H](Oc3c4cc5cc3Oc3ccc(cc3Cl)[C@@H](O)C3NC(=O)[C@H](NC(=O)[C@@H]5NC(=O)[C@H]5NC(=O)[C@@H](Cc6ccc(cc6)O4)NC(=O)[C@H](NC)c4ccc(O)c(c4)Oc4cc(O)c(Cl)c5c4)c4ccc(O)c(c4)-c4c(O[C@H]5O[C@H](CO)[C@@H](O)[C@H](O)[C@@H]5O)cc(O)cc4[C@@H](C(=O)NCCCN(C)C)NC3=O)OC(C(=O)NCCCN(C)C)C(O)[C@@H]2O)cc1` (stereo not given in full), the minimum inhibitory concentration (MIC) in [3] amounted to 1 µg/mL; with Enterococcus faecalis [10], 0.25 µg/mL; in assay [4], 2 µg/mL; with Enterococcus faecalis [5], 4 µg/mL; in the assay with Enterococcus faecium [7], 0.25 µg/mL; in the assay on Enterococcus faecium [11], 8 µg/mL. In addition, in the assay with Staphylococcus aureus [8], 2 µg/mL (≈ 1.03 µM) was the least that counted as inhibitory (MIC).

As for `CN(C)CCCNC(=O)C1O[C@@H](Oc2c3cc4cc2Oc2ccc(cc2Cl)[C@@H](O)C2NC(=O)[C@H](NC(=O)[C@@H]4NC(=O)[C@H]4NC(=O)[C@@H](Cc5ccc(cc5)O3)NC(=O)[C@H](N(C)Cc3ccc5ccccc5c3)c3ccc(O)c(c3)Oc3cc(O)c(Cl)c4c3)c3ccc(O)c(c3)-c3c(O[C@H]4O[C@H](CO)[C@@H](O)[C@H](O)[C@@H]4O)cc(O)cc3[C@@H](C(=O)NCCCN(C)C)NC2=O)C(NCc2ccc3ccccc3c2)[C@@H](O)C1O` (stereo not given in full), the minimal inhibitory concentration (MIC) in the assay on Enterococcus faecalis [12] is 64 µg/mL; in the assay with Enterococcus faecium [13], over 32 µg/mL; in the assay on Enterococcus faecalis [14], under 0.25 µg/mL; in assay [3], under 0.125 µg/mL; in assay [4] it was 1 µg/mL; in assay [6], 2 µg/mL. The MIC was determined as 0.25 µg/mL in the assay on Enterococcus faecium [7], 2 µg/mL (≈ 1 µM) in the assay on Staphylococcus aureus [8] and 1 µg/mL (≈ 0.5 µM) with Staphylococcus aureus [15].

For orientation: MIC means the smallest concentration in the dilution series that meets the test's criterion for growth inhibition.
